# From ChEMBL document CHEMBL1201862, “PubChem BioAssay data set” (2004)
# Calls of active or inactive are those of the source. Cut-off read from the data, not from the text of the source, for most assays here: actives have a measured IC50 and inactives only a lower limit.
# Key:
# [1] = molecular target: 72 kDa type IV collagenase (Homo sapiens, UniProt P08253); test: Dose Response validation of uHTS RPN11 inhibitor hits using a MMP-2 Fluorescence assay.; type: functional
# [2] = molecular target: 26S proteasome non-ATPase regulatory subunit 14 (Homo sapiens, UniProt O00487); test: inhibition of proteasome subunit RPN11 – biochemical, fluorescence polarization, uHTS hits, confirmation (AID 602368); type: functional
# Prothrombin = Prothrombin (Bos taurus, UniProt P00735); test: thrombin inhibition, dose response, biochemical, fluorescence polarization, uHTS hits (AID 602369); type: functional
# INS1 = test: beta cell apoptosis inhibitors, cytokine rescue, dose response, luminescence, retest (AID 449756); type: functional, cell-based; conditions: Rattus norvegicus;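 note: cell death triggered by IL-1 beta plus TNF-alpha plus IFN-gamma mixture; protective hits raise ATP signal compared with cytokine alone wells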
# [3] = molecular target: T1, Apoptotic protease-activating factor 1 (Homo sapiens, UniProt O14727); type: functional
# T1 sequence (O14727 whole entry): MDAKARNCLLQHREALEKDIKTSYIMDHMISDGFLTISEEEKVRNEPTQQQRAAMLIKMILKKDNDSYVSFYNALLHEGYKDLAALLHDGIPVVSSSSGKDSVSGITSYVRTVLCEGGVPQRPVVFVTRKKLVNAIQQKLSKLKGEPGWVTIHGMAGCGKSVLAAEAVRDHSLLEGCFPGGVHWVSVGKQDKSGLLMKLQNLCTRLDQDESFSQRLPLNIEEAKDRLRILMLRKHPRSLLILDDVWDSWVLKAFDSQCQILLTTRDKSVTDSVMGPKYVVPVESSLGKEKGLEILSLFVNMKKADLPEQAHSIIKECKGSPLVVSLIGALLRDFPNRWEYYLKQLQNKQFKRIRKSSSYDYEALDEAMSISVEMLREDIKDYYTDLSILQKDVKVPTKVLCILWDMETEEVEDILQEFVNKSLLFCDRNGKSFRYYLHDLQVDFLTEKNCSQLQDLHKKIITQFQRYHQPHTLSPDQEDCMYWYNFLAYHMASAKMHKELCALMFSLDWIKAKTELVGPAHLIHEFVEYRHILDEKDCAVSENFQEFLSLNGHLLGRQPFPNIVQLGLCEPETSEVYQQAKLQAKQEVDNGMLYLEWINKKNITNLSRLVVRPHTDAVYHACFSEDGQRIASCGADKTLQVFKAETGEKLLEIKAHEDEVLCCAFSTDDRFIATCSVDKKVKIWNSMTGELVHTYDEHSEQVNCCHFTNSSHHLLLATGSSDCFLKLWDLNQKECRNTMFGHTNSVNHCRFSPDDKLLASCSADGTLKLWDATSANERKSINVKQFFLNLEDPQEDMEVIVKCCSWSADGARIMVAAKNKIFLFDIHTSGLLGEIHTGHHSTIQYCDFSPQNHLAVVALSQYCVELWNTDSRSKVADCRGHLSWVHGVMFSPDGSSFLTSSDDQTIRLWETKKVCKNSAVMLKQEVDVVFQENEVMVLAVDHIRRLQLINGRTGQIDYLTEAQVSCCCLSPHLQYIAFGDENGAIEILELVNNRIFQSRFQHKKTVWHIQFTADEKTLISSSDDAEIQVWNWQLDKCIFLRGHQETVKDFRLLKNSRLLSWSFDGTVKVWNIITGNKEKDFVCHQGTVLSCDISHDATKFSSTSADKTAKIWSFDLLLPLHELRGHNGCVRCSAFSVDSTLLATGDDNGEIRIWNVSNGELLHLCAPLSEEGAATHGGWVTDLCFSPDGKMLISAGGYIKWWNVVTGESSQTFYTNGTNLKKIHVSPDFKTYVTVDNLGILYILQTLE
# [4] = molecular target: T2, Tyrosyl-DNA phosphodiesterase 2 (Homo sapiens, UniProt O95551); test: human TDP2 enzyme inhibitors, dose response, biochemical, epi absorbance, IC50 (AID 743297)
# T2 sequence (O95551 whole entry): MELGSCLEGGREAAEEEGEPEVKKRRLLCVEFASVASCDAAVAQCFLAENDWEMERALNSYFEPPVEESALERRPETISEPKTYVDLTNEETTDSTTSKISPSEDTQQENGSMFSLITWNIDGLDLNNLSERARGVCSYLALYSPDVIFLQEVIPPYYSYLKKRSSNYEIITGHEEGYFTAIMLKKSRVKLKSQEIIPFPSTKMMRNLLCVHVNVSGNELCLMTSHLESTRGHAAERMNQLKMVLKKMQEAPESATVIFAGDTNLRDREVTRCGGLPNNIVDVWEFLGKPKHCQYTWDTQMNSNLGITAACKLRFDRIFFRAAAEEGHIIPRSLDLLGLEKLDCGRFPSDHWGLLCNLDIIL
# Nonstructural protein 1 = Nonstructural protein 1 (Influenza A virus, UniProt Q194T2); type: functional, Influenza A virus (A/California/07/2009(H1N1))
# [5] = molecular target: T3, Sentrin-specific protease 7 (Homo sapiens, UniProt Q9BQF6); test: SENP7 protease inhibitors, SAR follow-up, biochemical, luminescence (AID 504497); type: functional
# T3 sequence (Q9BQF6 whole entry): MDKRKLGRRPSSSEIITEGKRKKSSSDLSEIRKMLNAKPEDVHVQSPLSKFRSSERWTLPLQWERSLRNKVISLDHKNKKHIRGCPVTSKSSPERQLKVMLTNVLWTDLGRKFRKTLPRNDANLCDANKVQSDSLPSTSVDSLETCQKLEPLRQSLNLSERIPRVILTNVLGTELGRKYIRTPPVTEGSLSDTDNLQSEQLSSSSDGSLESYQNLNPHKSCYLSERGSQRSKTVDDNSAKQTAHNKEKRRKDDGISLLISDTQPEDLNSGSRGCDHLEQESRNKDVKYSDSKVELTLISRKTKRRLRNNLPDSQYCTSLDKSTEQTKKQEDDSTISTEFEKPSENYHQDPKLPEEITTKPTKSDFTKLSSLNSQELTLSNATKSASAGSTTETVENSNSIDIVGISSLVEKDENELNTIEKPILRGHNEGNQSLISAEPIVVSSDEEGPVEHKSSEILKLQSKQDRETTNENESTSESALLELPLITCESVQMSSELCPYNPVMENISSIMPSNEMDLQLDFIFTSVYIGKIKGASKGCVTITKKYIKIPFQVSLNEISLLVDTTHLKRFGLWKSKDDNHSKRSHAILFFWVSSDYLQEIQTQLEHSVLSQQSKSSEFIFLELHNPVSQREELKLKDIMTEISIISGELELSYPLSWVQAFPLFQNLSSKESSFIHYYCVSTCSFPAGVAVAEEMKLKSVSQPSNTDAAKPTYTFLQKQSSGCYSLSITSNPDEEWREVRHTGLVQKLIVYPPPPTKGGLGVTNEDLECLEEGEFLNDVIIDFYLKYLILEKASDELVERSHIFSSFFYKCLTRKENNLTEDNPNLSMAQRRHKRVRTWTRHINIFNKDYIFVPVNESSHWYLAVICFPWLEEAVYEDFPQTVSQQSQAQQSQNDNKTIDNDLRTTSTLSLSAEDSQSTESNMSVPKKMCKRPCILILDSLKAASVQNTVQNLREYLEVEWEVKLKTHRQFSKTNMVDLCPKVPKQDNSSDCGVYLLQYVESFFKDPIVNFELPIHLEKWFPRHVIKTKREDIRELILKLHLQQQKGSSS
# [6] = molecular target: T4, Sentrin-specific protease 6 (Homo sapiens, UniProt Q9GZR1); type: functional
# T4 sequence (Q9GZR1 whole entry): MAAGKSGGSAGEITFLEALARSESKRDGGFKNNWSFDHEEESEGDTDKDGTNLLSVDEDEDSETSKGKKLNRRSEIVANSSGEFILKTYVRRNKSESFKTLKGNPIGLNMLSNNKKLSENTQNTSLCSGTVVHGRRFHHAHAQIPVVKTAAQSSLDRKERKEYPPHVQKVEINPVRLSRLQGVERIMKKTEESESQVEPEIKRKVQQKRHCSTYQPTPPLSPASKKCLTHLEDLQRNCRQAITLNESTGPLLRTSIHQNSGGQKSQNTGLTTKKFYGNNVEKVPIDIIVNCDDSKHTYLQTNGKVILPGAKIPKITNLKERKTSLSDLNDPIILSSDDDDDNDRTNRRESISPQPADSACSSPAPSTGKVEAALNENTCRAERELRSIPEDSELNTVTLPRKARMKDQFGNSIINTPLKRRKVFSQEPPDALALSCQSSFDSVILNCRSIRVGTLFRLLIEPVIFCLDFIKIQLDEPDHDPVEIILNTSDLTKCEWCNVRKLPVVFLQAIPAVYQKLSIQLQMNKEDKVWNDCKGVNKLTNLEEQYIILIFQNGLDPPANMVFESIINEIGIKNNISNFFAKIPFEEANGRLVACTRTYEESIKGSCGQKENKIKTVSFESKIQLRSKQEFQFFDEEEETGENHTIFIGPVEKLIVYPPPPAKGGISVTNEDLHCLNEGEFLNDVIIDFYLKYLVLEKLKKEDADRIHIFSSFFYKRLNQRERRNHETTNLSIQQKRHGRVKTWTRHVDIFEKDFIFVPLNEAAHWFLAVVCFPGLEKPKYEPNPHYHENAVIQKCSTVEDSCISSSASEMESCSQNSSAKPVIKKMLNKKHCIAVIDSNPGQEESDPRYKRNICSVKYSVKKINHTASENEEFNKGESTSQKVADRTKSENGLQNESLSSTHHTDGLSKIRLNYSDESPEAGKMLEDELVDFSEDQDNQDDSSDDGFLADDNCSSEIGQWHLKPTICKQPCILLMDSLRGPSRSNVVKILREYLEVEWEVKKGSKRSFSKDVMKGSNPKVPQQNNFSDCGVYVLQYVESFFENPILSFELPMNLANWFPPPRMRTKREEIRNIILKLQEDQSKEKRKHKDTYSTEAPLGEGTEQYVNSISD
# [7] = molecular target: T4, Sentrin-specific protease 6; test: SAR Analysis of small molecule inhibitors of Sentrin-specific protease 6 (SENP6) using a Luminescent assay. [Related pubchem assays (depositor defined):AID2582, AID2599]; type: functional
# Caspase-3 [8] = molecular target: T5, Caspase-3 (Homo sapiens, UniProt P42574); type: functional
# T5 sequence (P42574 whole entry): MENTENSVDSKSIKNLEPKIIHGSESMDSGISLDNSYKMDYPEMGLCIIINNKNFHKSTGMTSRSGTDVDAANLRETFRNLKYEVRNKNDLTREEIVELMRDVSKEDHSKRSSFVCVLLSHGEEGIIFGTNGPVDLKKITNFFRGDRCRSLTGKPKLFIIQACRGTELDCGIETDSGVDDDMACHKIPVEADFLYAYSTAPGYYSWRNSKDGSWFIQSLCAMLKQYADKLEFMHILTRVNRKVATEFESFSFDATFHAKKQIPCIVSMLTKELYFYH
# Caspase-3 [9] = molecular target: T5, Caspase-3; test: SAR Analysis of small molecule inhibitors of Sentrin-specific proteases (SENPs) using a Caspase-3 Selectivity assay. [Related pubchem assays (depositor defined):AID2540, AID2599, AID434973, AID489001]; type: functional
# [10] = molecular target: T6, Sentrin-specific protease 8 (Homo sapiens, UniProt Q96LD8); test: SENP8 protease inhibitors, SAR follow-up, biochemical, luminescence (AID 504501); type: functional
# T6 sequence (Q96LD8 whole entry): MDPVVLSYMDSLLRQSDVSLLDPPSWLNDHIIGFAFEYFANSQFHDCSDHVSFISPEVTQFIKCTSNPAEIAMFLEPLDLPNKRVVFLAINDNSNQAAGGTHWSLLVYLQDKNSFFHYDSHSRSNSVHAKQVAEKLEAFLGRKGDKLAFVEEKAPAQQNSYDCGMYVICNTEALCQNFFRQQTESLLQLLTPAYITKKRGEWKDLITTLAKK
# [11] = molecular target: T6, Sentrin-specific protease 8; type: functional
# [12] = molecular target: T3, Sentrin-specific protease 7; type: functional
# [13] = molecular target: Glucose-6-phosphate 1-dehydrogenase (Homo sapiens, UniProt P11413); test: human G6PD enzyme inhibitors, dose response, selectivity assay for P. falciparum G6PD inhibitor project, biochemical, fluorescence (AID 504792); type: functional
# Genome polyprotein = Genome polyprotein (dengue virus type 2, UniProt P29990); test: Dengue-2 NS5 methyltransferase inhibitors, primary screen, biochemical, confirmation dose response (AID 588689); type: functional
# Vero = Vero cell cytotoxicity, cytotoxicity control for flavivirus capping enzyme inhibitors (AID 588742); type: functional; conditions: Chlorocebus sabaeus
# [14] = molecular target: Induced myeloid leukemia cell differentiation protein Mcl-1 (Homo sapiens, UniProt Q07820); type: functional
# [15] = molecular target: Hepatocyte nuclear factor 4-alpha (Homo sapiens, UniProt P41235); type: functional, cell-based;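 note: biochemical luminescence-based dose-response counterscreen measuring inhibition of HNF4 dimerization, run alongside a screen for blockers of ABHD5–perilipin-5 interaction; split luciferase complementation of HNF4 fusion proteins in cell lysate measuring dimerization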
# Chain of Hepatocyte nuclear factor 4-alpha (P41235 whole entry, the tested form may be a part): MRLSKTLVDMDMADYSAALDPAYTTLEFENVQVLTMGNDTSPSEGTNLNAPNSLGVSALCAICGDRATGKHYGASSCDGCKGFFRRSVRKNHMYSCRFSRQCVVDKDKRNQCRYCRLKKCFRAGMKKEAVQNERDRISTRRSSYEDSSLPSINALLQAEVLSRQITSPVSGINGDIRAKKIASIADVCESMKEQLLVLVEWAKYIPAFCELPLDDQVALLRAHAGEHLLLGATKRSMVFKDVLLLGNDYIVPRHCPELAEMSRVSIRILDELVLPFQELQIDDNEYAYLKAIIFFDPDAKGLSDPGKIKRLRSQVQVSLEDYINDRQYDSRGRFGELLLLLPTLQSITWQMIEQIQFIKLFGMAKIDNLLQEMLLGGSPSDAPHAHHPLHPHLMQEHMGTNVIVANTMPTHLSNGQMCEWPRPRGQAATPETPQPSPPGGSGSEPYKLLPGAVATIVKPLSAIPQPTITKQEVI
# Chain of 72 kDa type IV collagenase (P08253 whole entry): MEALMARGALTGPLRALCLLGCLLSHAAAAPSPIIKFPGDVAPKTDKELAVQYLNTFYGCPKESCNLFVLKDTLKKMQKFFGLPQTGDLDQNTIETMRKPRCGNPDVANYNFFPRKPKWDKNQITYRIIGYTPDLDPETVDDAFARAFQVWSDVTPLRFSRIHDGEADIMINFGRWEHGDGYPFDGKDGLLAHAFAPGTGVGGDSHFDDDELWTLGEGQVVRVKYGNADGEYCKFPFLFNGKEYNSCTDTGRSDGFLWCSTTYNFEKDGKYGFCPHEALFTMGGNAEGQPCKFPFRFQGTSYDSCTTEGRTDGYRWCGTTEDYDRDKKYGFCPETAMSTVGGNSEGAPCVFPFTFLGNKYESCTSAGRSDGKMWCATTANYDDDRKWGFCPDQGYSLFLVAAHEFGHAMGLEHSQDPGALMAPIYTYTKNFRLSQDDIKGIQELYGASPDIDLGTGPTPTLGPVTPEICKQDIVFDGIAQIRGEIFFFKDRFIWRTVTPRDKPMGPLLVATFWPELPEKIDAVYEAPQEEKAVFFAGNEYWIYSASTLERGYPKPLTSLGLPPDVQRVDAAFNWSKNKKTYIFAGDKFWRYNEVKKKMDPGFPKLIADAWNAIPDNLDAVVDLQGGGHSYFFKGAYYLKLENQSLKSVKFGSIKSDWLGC
# Chain of 26S proteasome non-ATPase regulatory subunit 14 (O00487 whole entry): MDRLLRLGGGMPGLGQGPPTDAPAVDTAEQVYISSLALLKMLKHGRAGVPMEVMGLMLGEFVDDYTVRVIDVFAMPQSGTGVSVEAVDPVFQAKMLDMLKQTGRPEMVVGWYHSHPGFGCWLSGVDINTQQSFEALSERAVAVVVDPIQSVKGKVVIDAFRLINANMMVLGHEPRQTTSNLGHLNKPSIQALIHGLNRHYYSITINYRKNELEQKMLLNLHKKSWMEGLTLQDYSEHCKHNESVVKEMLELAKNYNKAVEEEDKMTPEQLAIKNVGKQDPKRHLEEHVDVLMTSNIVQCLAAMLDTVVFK
# Chain of Glucose-6-phosphate 1-dehydrogenase (P11413 whole entry): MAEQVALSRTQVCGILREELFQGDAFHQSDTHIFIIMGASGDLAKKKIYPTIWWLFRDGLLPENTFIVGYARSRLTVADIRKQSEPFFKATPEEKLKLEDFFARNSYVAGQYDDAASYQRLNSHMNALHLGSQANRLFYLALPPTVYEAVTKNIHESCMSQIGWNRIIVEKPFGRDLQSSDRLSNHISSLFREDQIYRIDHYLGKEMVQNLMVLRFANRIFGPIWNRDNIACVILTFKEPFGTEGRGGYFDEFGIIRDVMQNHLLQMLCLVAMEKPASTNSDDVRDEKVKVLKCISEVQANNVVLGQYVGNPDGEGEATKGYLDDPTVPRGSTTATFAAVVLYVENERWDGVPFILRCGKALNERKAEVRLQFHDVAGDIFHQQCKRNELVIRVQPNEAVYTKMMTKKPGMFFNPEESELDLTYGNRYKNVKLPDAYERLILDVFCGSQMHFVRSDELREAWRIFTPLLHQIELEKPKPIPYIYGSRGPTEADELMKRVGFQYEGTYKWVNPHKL
# Chain of Genome polyprotein (P29990 2492-3391 limits assumed): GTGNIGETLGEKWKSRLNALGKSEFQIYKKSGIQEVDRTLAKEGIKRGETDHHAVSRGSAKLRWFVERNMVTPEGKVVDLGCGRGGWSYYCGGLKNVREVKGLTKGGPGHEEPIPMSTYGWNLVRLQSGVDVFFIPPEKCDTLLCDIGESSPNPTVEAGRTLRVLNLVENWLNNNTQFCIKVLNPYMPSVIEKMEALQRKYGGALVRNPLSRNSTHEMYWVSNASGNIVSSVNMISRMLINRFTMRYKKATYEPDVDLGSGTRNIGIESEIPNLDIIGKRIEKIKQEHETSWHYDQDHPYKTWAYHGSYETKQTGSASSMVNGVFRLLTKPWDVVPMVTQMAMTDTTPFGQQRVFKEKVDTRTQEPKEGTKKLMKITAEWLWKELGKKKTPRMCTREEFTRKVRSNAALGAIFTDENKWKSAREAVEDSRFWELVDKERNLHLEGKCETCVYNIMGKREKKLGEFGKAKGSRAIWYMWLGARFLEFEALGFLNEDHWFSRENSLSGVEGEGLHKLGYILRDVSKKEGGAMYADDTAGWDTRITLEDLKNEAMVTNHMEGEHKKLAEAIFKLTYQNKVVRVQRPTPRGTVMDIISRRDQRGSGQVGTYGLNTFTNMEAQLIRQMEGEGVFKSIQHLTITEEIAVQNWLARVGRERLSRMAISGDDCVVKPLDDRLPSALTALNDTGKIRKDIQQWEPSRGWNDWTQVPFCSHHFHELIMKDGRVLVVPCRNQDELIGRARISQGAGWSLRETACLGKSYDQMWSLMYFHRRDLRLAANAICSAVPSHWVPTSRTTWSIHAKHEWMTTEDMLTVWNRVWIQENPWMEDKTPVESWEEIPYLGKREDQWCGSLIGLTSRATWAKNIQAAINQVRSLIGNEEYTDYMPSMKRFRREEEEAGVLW
# Chain of Nonstructural protein 1 (Q194T2 whole entry): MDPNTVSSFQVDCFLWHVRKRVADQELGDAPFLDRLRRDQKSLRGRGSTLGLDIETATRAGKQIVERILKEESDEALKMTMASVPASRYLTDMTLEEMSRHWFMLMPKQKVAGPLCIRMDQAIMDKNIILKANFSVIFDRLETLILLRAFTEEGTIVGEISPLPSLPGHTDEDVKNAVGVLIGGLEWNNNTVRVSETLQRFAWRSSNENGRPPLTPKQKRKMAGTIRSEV
# Chain of Induced myeloid leukemia cell differentiation protein Mcl-1 (Q07820 whole entry, the tested form may be a part): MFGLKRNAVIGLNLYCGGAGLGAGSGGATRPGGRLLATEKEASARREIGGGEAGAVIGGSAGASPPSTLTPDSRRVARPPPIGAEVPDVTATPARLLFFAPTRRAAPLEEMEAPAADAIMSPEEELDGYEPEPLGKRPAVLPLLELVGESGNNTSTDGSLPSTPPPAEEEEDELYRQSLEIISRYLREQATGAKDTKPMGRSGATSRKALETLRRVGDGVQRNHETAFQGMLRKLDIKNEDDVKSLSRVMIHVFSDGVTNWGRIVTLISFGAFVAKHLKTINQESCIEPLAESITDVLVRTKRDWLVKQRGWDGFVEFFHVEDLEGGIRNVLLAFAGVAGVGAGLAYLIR
smiles,measurement,setting,value
CC(/C=C1\SC(=S)N(CCC(=O)Nc2cccc(C(=O)O)c2)C1=O)=C\c1ccccc1,IC50,[1],64.9 µM (active)
same,IC50,[2],47.4 µM (active)
same,IC50,Prothrombin,73.5 µM (active)
Nc1ccc2nn(-c3cccc4ccccc34)nc2c1,AC50,INS1,12.6 µM (active)
same,IC50,[3],50 µM (active)
same,IC50,[4],> 128 µM (inactive)
COc1ccccc1N1CCN(C(c2cccs2)C(C)NS(=O)(=O)c2ccccc2)CC1 (stereo not drawn),IC50,[3],10 µM (active)
CCCC(=O)NC(c1cccs1)c1cc([N+](=O)[O-])c2cccnc2c1O (stereo not drawn),IC50,[1],3.26 µM (active)
same,IC50,Nonstructural protein 1,13.1 µM (active)
same,IC50,[2],89.3 µM (active)
same,IC50,Prothrombin,83.6 µM (active)
O=C(Nc1nc2ccccc2s1)c1ccc(Cl)s1,IC50,[5],1.35 µM (active)
same,IC50,[6],> 100 µM (inactive)
same,IC50,[7],2.83 µM (active)
same,IC50,Caspase-3 [8],10.5 µM (active)
same,IC50,Caspase-3 [9],3.28 µM (active)
same,IC50,[10],2.55 µM (active)
same,IC50,[11],1.56 µM (active)
same,IC50,[12],2.16 µM (active)
COc1cc(OC)cc(C(=O)Nc2ccc3ccccc3c2)c1,IC50,[5],2.86 µM (active)
same,IC50,[7],7 µM (active)
same,IC50,Caspase-3 [9],8.7 µM (active)
same,IC50,[10],7.8 µM (active)
COc1cc(OC)cc(-c2noc(/C=C/c3ccccc3)n2)c1,IC50,[5],21.4 µM (active)
same,IC50,[7],> 99 µM (inactive)
same,IC50,Caspase-3 [9],59 µM (active)
same,IC50,[10],> 99 µM (inactive)
Cc1cc(C)c(S(=O)(=O)/N=C2/C=C(SCC(=O)O)C(=O)c3ccccc32)cc1C,IC50,[13],30.2 µM (inactive)
same,IC50,[3],12.6 µM (active)
same,IC50,Genome polyprotein,> 100 µM (active)
same,CC50,Vero,37.5 µM (active)
same,IC50,[14],7.55 µM (active)
O=C(NC1CCCCC1)C(C1CC1)n1c(=O)c(-c2ccco2)nc2ccccc21 (stereo not drawn),IC50,[15],2.17 µM (active)
